The source made the active and inactive calls. The calls are words filed in the database; no cut-off is given here.
How the values were obtained:
[1] = target: SOS1-KRAS (Homo sapiens, UniProt P01116, G12C); test: Inhibition of KRAS G12C mutant/SOS1 (unknown origin) interaction incubated for 2 hrs in presence of GTP by HTRF assay; assay type: protein-complex assay
[2] = system: GTPase KRas (Homo sapiens), P01116 [G12C]; test: Inhibition of KRAS G12C mutant RBD in human NCI-H358 cells upto 1 uM in presence of GTP by pull-down assay; assay type: cell-based; details: time 24.0 hrs, TDE = time-dependent effect
[3] = system: GTPase KRas (Homo sapiens), P01116 [G12C]; test: Inhibition of KRAS G12C mutant in human NCI-H358 cells assessed as decrease in ERK phosphorylation upto 5 uM by Western blot analysis; assay type: cell-based; details: time 2-72 hrs, TDE = time-dependent effect
[4] = system: GTPase KRas (Homo sapiens), P01116 [G12C]; test: Inhibition of KRAS G12C mutant in human NCI-H358 cells assessed as decrease in AKT phosphorylation incubated for 2 to 72 hrs by Western blot analysis; assay type: cell-based; details: time 2-72 hrs
[5] = system: GTPase KRas (Homo sapiens), P01116 [G12C]; test: Inhibition of KRAS G12C mutant in human NCI-H358 cells assessed as decrease in ERK phosphorylation at 0.1 uM incubated for 4 to 24 hrs by Western blot analysis; assay type: cell-based; details: time 4-24 hrs
[6] = system: NCI-H358; test: Antiproliferative activity against human NCI-H358 cells harboring KRAS G12C mutant assessed as inhibition of cell proliferation incubated for 3 days by CCK8 assay; assay type: functional, cell-based; details: NCI-H358, 72 h
[7] = system: MIA PaCa-2; test: Antiproliferative activity against human MIA PaCa-2 cells harboring KRAS G12C mutant assessed as inhibition of cell proliferation incubated for 3 days by CCK8 assay; assay type: functional, cell-based; details: MIA PaCa-2, 72 h
[8] = system: NCI-H1975; test: Antiproliferative activity against human NCI-H1975 cells harboring wild-type KRAS assessed as inhibition of cell proliferation incubated for 3 days by CCK8 assay; assay type: functional, cell-based; details: NCI-H1975, 72 h
[9] = system: GTPase KRas (Homo sapiens), P01116 [G12C]; test: Inhibition of KRAS G12C mutant in human […] cells assessed as decrease in ERK phosphorylation at 5 to 20 uM incubated for 4 hrs by Western blot analysis; assay type: cell-based; details: dose 5-20 µM
[10] = system: NCI-H358; test: Antiproliferative activity against human NCI-H358 cells harboring siKRAS assessed as inhibition of cell proliferation; assay type: functional, cell-based
[11] = system: NCI-H358; test: Antiproliferative activity against human NCI-H358 cells harboring KRAS G12C/Y96D mutant assessed as inhibition of cell proliferation incubated for 48 hrs by CCK8 assay; assay type: functional, cell-based
[12] = system: NCI-H358; test: Induction of apoptosis in human NCI-H358 cells assessed as early apoptotic cells at 0.1 uM incubated for 24 hrs by Annexin V-FITC/PI staining based flow cytometry (reference value: 5.4 %); assay type: functional
[13] = system: NCI-H358; test: Induction of apoptosis in human NCI-H358 cells assessed as necrotic cells at 0.1 uM incubated for 24 hrs by Annexin V-FITC/PI staining based flow cytometry (reference value: 1.88 %); assay type: functional
[14] = system: NCI-H358; test: Induction of apoptosis in human NCI-H358 cells assessed as viable cells at 0.3 uM incubated for 24 hrs by Annexin V-FITC/PI staining based flow cytometry (reference value: 91.4 %); assay type: functional; details: read-out: Activity
[15] = system: NCI-H358; test: Induction of apoptosis in human NCI-H358 cells assessed as early apoptotic cells at 0.3 uM incubated for 24 hrs by Annexin V-FITC/PI staining based flow cytometry (reference value: 5.4 %); assay type: functional
[16] = system: NCI-H358; test: Induction of apoptosis in human NCI-H358 cells assessed as necrotic cells at 0.3 uM incubated for 24 hrs by Annexin V-FITC/PI staining based flow cytometry (reference value: 1.88 %); assay type: functional
[17] = system: NCI-H358; test: Induction of apoptosis in human NCI-H358 cells assessed as viable cells at 0.5 uM incubated for 24 hrs by Annexin V-FITC/PI staining based flow cytometry (reference value: 91.4 %); assay type: functional; details: read-out: Activity
[18] = system: NCI-H358; test: Induction of apoptosis in human NCI-H358 cells assessed as late apoptotic cells at 0.5 uM incubated for 24 hrs by Annexin V-FITC/PI staining based flow cytometry (reference value: 1.32 %); assay type: functional
[19] = system: NCI-H358; test: Induction of apoptosis in human NCI-H358 cells assessed as early apoptotic cells at 1 uM incubated for 24 hrs by Annexin V-FITC/PI staining based flow cytometry (reference value: 5.4 %); assay type: functional
[20] = system: NCI-H358; test: Induction of apoptosis in human NCI-H358 cells assessed as increase in cleaved PARP level upto 5 uM incubated for 24 hrs by Western blot analysis; assay type: functional, cell-based
[21] = system: NCI-H358; test: Inhibition of cell migration in human NCI-H358 cells at 0.1 to 1 uM measured for 48 hrs by wound scratch assay; assay type: functional, cell-based; details: dose 0.1-1 µM
[22] = AUC (0 to infinity) in ICR mouse at 3 mg/kg, iv measured for 24 hrs by LC-MS/MS analysis; assay type: ADME, organism-based; design: dose 3 mg/kg, time 24 hrs, route iv; details: in vivo
[23] = Volume of distribution at steady state in ICR mouse at 3 mg/kg, iv measured for 24 hrs by LC-MS/MS analysis; assay type: ADME, organism-based; details: in vivo, read-out: Vdss
[24] = Clearance in ICR mouse at 3 mg/kg, iv measured for 24 hrs by LC-MS/MS analysis; assay type: ADME, organism-based; details: in vivo
[25] = C0 in ICR mouse at 30 mg/kg, po measured for 24 hrs by LC-MS/MS analysis; assay type: ADME, organism-based; details: in vivo
[26] = Tmax in ICR mouse at 30 mg/kg, po measured for 24 hrs by LC-MS/MS analysis; assay type: ADME, organism-based; details: in vivo
[27] = system: NCI-H358; test: Antitumor activity in human NCI-H358 cells xenografted in BALB/c-nu/nu mouse assessed as tumor regression at 30 mg/kg, po qd treated for 20 days; assay type: functional, organism-based; details: time 20.0 day
[28] = system: NCI-H358; test: Antitumor activity in human NCI-H358 cells xenografted in BALB/c-nu/nu mouse assessed as tumor growth inhibition at 10 mg/kg, po qd treated for 20 days relative to control; assay type: functional; details: Mus musculus, NCI-H358, 480 h, time 20 day, read-out: TGI
[29] = system: NCI-H358; test: Antitumor activity in human NCI-H358 cells xenografted in BALB/c-nu/nu mouse assessed as tumor growth inhibition at 30 mg/kg, po qd treated for 20 days relative to control; assay type: functional; details: NCI-H358, 480 h, time 20 day, read-out: TGI
[30] = Toxicity in BALB/c-nu/nu mouse xenografted with human NCI-H358 cells assessed as drug tolerance at 10 to 30 mg/kg, po qd treated for 20 days; assay type: organism-based; details: in vivo, 480 h, dose 10-30 mg/kg, time 20 day
[31] = Toxicity in BALB/c-nu/nu mouse xenografted with human NCI-H358 cells assessed as morphological damage in kidney at 10 to 30 mg/kg, po qd treated for 20 days; assay type: organism-based; details: in vivo, 480 h, dose 10-30 mg/kg, time 20 day
[32] = system: NCI-H358; test: In vivo inhibition of KRAS G12C mutant in human NCI-H358 cells xenografted in BALB/c-nu/nu mouse assessed as decrease in ERK phosphorylation at 10 to 30 mg/kg, po qd treated for 20 days by Western blot analysis; assay type: functional, organism-based; details: dose 10-30 mg/kg, time 20.0 day
[33] = Toxicity in BALB/c-nu/nu mouse xenografted with human NCI-H358 cells assessed as histological change in lung at 10 to 30 mg/kg, po qd treated for 20 days by H and E staining based analysis; assay type: organism-based; details: in vivo, 480 h, dose 10-30 mg/kg, time 20 day

Chain of GTPase KRas (Homo sapiens), P01116 [G12C] (P01116 whole entry G12C): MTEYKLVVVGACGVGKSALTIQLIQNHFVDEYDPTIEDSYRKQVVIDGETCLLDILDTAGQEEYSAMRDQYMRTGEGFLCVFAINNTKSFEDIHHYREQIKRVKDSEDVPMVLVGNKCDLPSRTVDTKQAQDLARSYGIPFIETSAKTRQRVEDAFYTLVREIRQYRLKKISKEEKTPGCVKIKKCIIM
Chain of SOS1-KRAS (P01116 whole entry G12C, looked up): as the sequence (P01116 whole entry G12C) above

With `C=CC(=O)N1CCN(c2nc(OC[C@@]34CCCN3C[C@H](F)C4)nc3c2cc(-c2cccc4cccc(C)c24)n3C)C[C@@H]1CC#N` as the compound, how does the IC50 [1] read?
Its IC50 is 210 nM.

What about the inhibition [2] of the same compound?
The inhibition was “Tde”.

And the inhibition [3]?
The inhibition was “Tde”.

What about the inhibition [4] of the same compound?
Its inhibition is “Dose-Dependent Effect”.

And the inhibition [5]?
The inhibition was “Active”.

And the IC50 [6]?
Its IC50 is 160 nM.

And the IC50 [7]?
The IC50 was 870 nM.

What about the IC50 [8] of the same compound?
Its IC50 is 7910 nM.

And the inhibition [9]?
The inhibition was “Active”.

What about the inhibition [10] of the same compound?
Its inhibition is “Active”.

And the inhibition [11]?
The inhibition was “Active”.

What about the Activity [12] of the same compound?
Its Activity is 10.5%.

And the Activity [13]?
The Activity was 1.17%.

What about the viability at 0.3 µM [14] of the same compound?
The viability at 0.3 µM was 83.2%.

And the Activity [15]?
Its Activity is 11.8%.

What about the Activity [16] of the same compound?
Its Activity is 1.06%.

What about the viability at 0.5 µM [17] of the same compound?
Its viability at 0.5 µM is 79%.

And the Activity [18]?
Its Activity is 6.26%.

And the Activity [19]?
Its Activity is 22.4%.

What about the Activity [20] of the same compound?
The Activity was “Active”.

And the Activity [21]?
The Activity was “Active”.

And the AUC(0-inf) [22]?
Its AUC(0-inf) is 804 ng·h/mL.

What about the Vd [23] of the same compound?
The Vd was 4.98 L/kg.

What about the clearance [24] of the same compound?
The clearance was 62.3 mL/min/kg.

What about the C0 [25] of the same compound?
The C0 was 316 ng/mL.

And the Tmax [26]?
The Tmax was 4.98 min.

What about the Activity [27] of the same compound?
The Activity was “Active”.

And the inhibition in vivo at 10 mg/kg [28]?
Its inhibition in vivo at 10 mg/kg is 65.4%.

What about the inhibition in vivo at 30 mg/kg [29] of the same compound?
Its inhibition in vivo at 30 mg/kg is 84%.

What about the Activity [30] of the same compound?
The Activity was “Non-Toxic”.

And the Activity [31]?
The Activity was “Non-Toxic”.

And the inhibition [32]?
Its inhibition is “Active”.

And the Activity [33]?
The Activity was “Non-Toxic”.
